Measurements reported in patent publication US8663651B2, “T-140 peptide analogs having CXCR4 super-agonist activity for immunomodulation” (Biokine Therapeutics Ltd., priority 2006, dated 2014).
Square brackets hold non-standard residues; d marks the D form. * marks the point of attachment. Benzoyl(4-F) = O=C(c1ccc(F)cc1)*; Cit = NC(=O)NCCC[C@H](N)C(=O)O

How the values were obtained:
Format in all cases: cell-based, human
PC3-CXCR4.5 cells = test: MIP3α secretion by PC3-CXCR4.5 cells (CXCR4-overexpressing clone), assessed by ELISA; settings: for induced MIP3α secretion after silencing of CXCR4 expression: CXCL12 500 ng/ml or 4F-benzoyl-TN14003 8 μM for additional 48 hours
Protocol: (§1) In this example, regulation of the chemokine MIP3α (macrophage inflammatory protein 3α) was examined. […] In FIG. 1B, PC3 (left panel) and PC3-CXCR4.5 (right panel) cells were stimulated with the indicated concentrations of CXCL12 for 48 hours and MIP3α secretion was assessed by ELISA. The results represent the average of triplicates±STDEV.
(§2) The effects of the CXCR4 antagonist AMD3100 and of 4F-benzoyl-TN14003 (4FB-TN14003), hitherto known as a CXCR4 antagonist, on MIP3α secretion were further tested. […] In FIG. 1C, CXCR4 signaling in PC3 (left panel) and PC3-CXCR4.5 (right panel) cells was inhibited with anti-CXCL12 antibodies (αCXCL12) and Pertussis toxin (PTX) treatments alone or in combination with CXCL12, as indicated. Secretion of MIP3α was assessed by ELISA. The results represent the average of triplicates±STDEV.
(§3) The Dicer-substrate siRNA duplexes of CXCR4 (NCBI accession number NM 003467): sense 5′-[…]-3′ (SEQ ID NO:78), antisense 5′ […]-3′ (SEQ ID NO:79) were purchased from IDT, Coralville, Iowa. The non-specific siRNA duplexes were used as a control. PC3-CXCR4.5 cells were transfected with 200 nmol/L siRNA in serum-free medium using Oligofectamine reagent (Invitrogen, Carlsbad, Calif., USA), according to the manufacturer's instructions. To determine the efficiency of CXCR4RNA interference, at 48 hours post-transfection, the cells were analyzed for CXCR4 expression on mRNA and cell-surface levels.
In FIG. 2C, control (gray) and CXCR4 (black) siRNA-transfected PC3-CXCR4.5 cells at 48 hours post-transfection were incubated with CXCL12 500 ng/ml and 4F-benzoyl-TN14003 8 μM (4FB-TN14003) for additional 48 hours. MIP3α secretion was assessed by ELISA. The results represent the average of triplicates±STDEV.

NB4 = test: MIP3α secretion by NB4 cells, ELISA; settings: following stimulation
Protocol: (§4) The expression of MIP3α in a range of carcinoma cell lines and normal epithelial cells was tested by ELISA. […] Bone marrow endothelial cells, BMEC, glioblastoma cells U87, breast carcinoma cells MDA231, also were negative for MIP3α secretion. […] In addition, MIP3α was also secreted by normal keratinocytes (FIG. 4D) and primary blasts from peripheral blood of patients with AML (FIG. 4C). In FIG. 4, acute promyelocytic leukemia cell lines NB4 (FIG. 4A) and HL60 (FIG. 4B), primary peripheral blasts from the patient with acute myelocytic leukemia (FIG. 4C) and normal keratinocytes (FIG. 4D) were stimulated with the indicated concentration of CXCL12 for 48 hours. The secretion of MIP3α was assayed by ELISA. The results of experiments with NB4, HL60 and keratinocytes represent the average of triplicates±STDEV. […] Secretion of MIP3α was assessed by ELISA. […] The results represent the average of triplicates±STDEV.

PC3 cells = test: MIP3α secretion by PC3 cells, assessed by ELISA
Protocol: as §1, §2

normal keratinocytes = test: MIP3α secretion by normal keratinocytes, ELISA; settings: following stimulation
Protocol: as §4

HL-60 = test: MIP3α secretion by HL-60 cells, ELISA; settings: following stimulation
Protocol: as §4

CXCR4 = CXCR4 silencing by siRNA in PC3-CXCR4.5 cells (RT-PCR and FACS); settings: 200 nmol/L siRNA, 48 hours post-transfection
Protocol: as §3
In FIG. 2A, PC3-CXCR4.5 cells 48 hours following the transfection with CXCR4-specific siRNA were stained for the control and CXCR4 antibodies and evaluated by FACS. Left panel, non-transfected cells; middle panel, cells transfected with a control (non-specific) siRNA; right panel, cells transfected with a siRNA directed to CXCR4 (CXCR4 siRNA). Cells were stained for the control (IgG2a-PE, full histograms) and CXCR4 antibodies (IgG2a-12G5, empty histograms).
In FIG. 2B, RT-PCR analysis of CXCR4 of the siRNA-transfected PC3-CXCR4.5 cells 48 hours following the transfection is presented. […] Gene expression was determined using primers specific to CXCR4, or to the housekeeping gene β-actin as a control. […]

[1] = CXCR4 siRNA-transfected PC3-CXCR4.5 cells

Molecule: c1cc(CN2CCCNCCNCCCNCC2)ccc1CN1CCCNCCNCCCNCC1 [AMD3100, reference compound]
- induction of MIP3α secretion in an agonist manner (PC3-CXCR4.5 cells; PC3-CXCR4.5 cells): but not AMD3100 induced

Molecule: 4F-benzoyl-Arg-Arg-Nal-Cys-Tyr-Cit-Lys-DLys-Pro-Tyr-Arg-Cit-Cys-Arg-NH2 ({Benzoyl(4-F)}-RR[Nal]CY[Cit]K[dK]PYR[Cit]CR-NH2; cysteine pairing not given here) [4F-benzoyl-TN14003]
- MIP3α secretion (NB4): increased
- induction of MIP3α secretion in an agonist manner (PC3 cells; PC3 cells): induced in both cell lines MIP3α secretion in an agonist manner
- MIP3α secretion (normal keratinocytes): increased
- MIP3α secretion (HL-60): increased
- induced MIP3α secretion after silencing of CXCR4 expression (PC3-CXCR4.5 cells; [1]): inhibited
- induction of MIP3α secretion in an agonist manner (PC3-CXCR4.5 cells; PC3-CXCR4.5 cells): induced in both cell lines MIP3α secretion in an agonist manner
- mode of action on CXCR4 (PC3-CXCR4.5 cells; concluded from CXCR4-dependent MIP3α secretion in PC3-CXCR4.5 cells): super agonist for CXCR4

Molecule: Pertussis toxin [reference compound]
- MIP3α secretion (PC3 cells; PC3 cells, treatment alone or in combination with CXCL12): effectively inhibited the secretion of MIP3α
- MIP3α secretion (PC3-CXCR4.5 cells; PC3-CXCR4.5 cells, in combination with CXCL12): did not demonstrate an inhibitory effect on the level of MIP3α
- MIP3α secretion (PC3-CXCR4.5 cells; PC3-CXCR4.5 cells, treatment alone): secretion of MIP3α was decreased

Molecule: siRNA specific for CXCR4: Dicer-substrate siRNA duplexes of CXCR4 (SEQ ID NO:78 sense, SEQ ID NO:79 antisense), purchased from IDT (sense UAAAAUCUUCCUGCCCACCAUCUAC; antisense GUAGAUGGUGGGCAGGAAGAUUUUAUU; Dicer-substrate duplex, purchased, chemistry not given here) [reference compound]
- CXCR4 mRNA and cell surface expression (CXCR4): reduced CXCR4 mRNA and cell surface expression
- spontaneous MIP3α secretion after silencing of CXCR4 expression (PC3-CXCR4.5 cells; [1]): inhibited the spontaneous

Molecule: CXCL12: chemokine, CXCR4's only natural ligand
- MIP3α secretion (NB4): increased
- MIP3α secretion (PC3 cells; PC3 cells stimulated with increasing doses of CXCL12 for 48 hours): increased the secretion of MIP3α
- MIP3α secretion (normal keratinocytes): increased
- MIP3α secretion (HL-60): increased
- extent of MIP3α secretion induction compared with 4F-benzoyl-TN14003 (PC3-CXCR4.5 cells; CXCR4-expressing cell lines (general statement)): to a lesser extent than 4F-benzoyl-TN14003
- induced MIP3α secretion after silencing of CXCR4 expression (PC3-CXCR4.5 cells; [1]): inhibited
- MIP3α secretion (PC3-CXCR4.5 cells; PC3-CXCR4.5 cells stimulated with increasing doses of CXCL12 for 48 hours): increased the secretion of MIP3α
